Patent publication US9637488B2, “Heterocyclic compounds as inhibitors of class I PI3KS” (priority 2015, dated 2017)

Assays:
Assay type in all cases: biochemical
[1] = target: PI3Kδ (p110δ/p85α) (Homo sapiens (Human), UniProt O00329); test: cell-free PI3K HTRF assay, PI3Kδ; details: 10-dose IC50 mode, 3-fold serial dilution starting at 1 μM; ATP 10 μM; read-out: IC50 value for the inhibition of PI3Kδ
[2] = target: PI3Kα (p110α/p85α) (Homo sapiens (Human), UniProt P42336); test: cell-free PI3K HTRF assay, PI3Kα; details: ratio of IC50 against PI3Kα related to PI3Kδ; 10-dose, 3-fold serial dilution starting at 10 μM
Method: (§1) Exemplary compounds of the invention were tested for inhibitory activity and potency against class I PI3Ks (p110α/p85α, p110β/p85α, p110δ/p85α and p110γ) using a cell-free based PI3K HTRF assay. This assay was used to detect the formation of the product 3,4,5-inositol triphosphate molecule (PIP3) by displacement of biotin-PIP3 from an energy transfer complex consisting of Europium labeled anti-GST monoclonal antibody, a GST-tagged pleckstrin homology (PH) domain, biotinylated PIP3 and Streptavidin-Allophycocyanin (APC). Excitation of Europium in the complex results in an energy transfer to the APC and a fluorescent emission at 665 nm. The PIP3 product formed by human PI 3-Kinase activity displaces biotin-PIP3 from the complex resulting in a loss of energy transfer and thus a decrease in signal.
(§2) Human class I PI3K isoforms were co-expressed in a Baculovirus infected cell expression system. The PI3K isoforms were assayed in the presence of HEPES (50 mM, pH 7.0), NaN3 (0.02%), BSA (0.01%), orthovanadate (0.1 mM), and DMSO (1%). The exemplary compounds dissolved in DMSO were delivered into the kinase reaction mixture by Acoustic technology (Echo550; nanolitter range), and were pre-incubated for 10 min at room temperature before adding ATP (10 μM) to initiate the reaction. After 30 min at 30° C., the reactions were quenched with a stop solution, incubated overnight with a detection mixture before measuring HTRF (Ex: 320 nm; Em: 615/665 nm). The emission ratio is converted into μM PIP3 production based on PIP3 standard curves, and the nonlinear regression to obtain the standard curve and IC50 values are performed using Graphpad Prism software.
(§3) The assays were performed at Reaction Biology Corporation, One Great Valley Parkway, Suite 2, Malvern, Pa. 19355, USA.
(§4) Exemplary compounds of the invention selected were further tested their inhibitory activity or potency against PI3Kα, PI3Kβ, and PI3Kγ in 10-dose IC50 mode with 3-fold serial dilution starting at 10 μM. […] Table 5 below illustrates the selectivity of the exemplary compounds using the ratios of the IC50 values of the compounds against PI3Kα, PI3Kβ, and PI3Kγ related to PI3Kδ. […] Such unexpected selectivity against PI3Kδ and/or PI3Kγ is attributed to the unusual overall shape of the molecules of formula (I) and (II), and the optimal selection of R1, R2, R3, R4, X, and Y defined in formula (I) and (II) in order to bind favorably in the ATP-binding pocket of PI3Kδ and/or PI3Kγ versus other class I isozymes.

[3] = target: PI3Kβ (p110β/p85α) (Homo sapiens (Human), UniProt P42338); test: cell-free PI3K HTRF assay, PI3Kβ; details: ratio of IC50 against PI3Kβ related to PI3Kδ; 10-dose, 3-fold serial dilution starting at 10 μM
Method: as §1, §2, §3, §4

[4] = target: PI3Kγ (p110γ) (Homo sapiens (Human), UniProt P48736); test: cell-free PI3K HTRF assay, PI3Kγ; details: ratio of IC50 against PI3Kγ related to PI3Kδ; 10-dose, 3-fold serial dilution starting at 10 μM
Method: as §1, §2, §3, §4

Chain of PI3Kδ (p110δ/p85α) (O00329 whole entry): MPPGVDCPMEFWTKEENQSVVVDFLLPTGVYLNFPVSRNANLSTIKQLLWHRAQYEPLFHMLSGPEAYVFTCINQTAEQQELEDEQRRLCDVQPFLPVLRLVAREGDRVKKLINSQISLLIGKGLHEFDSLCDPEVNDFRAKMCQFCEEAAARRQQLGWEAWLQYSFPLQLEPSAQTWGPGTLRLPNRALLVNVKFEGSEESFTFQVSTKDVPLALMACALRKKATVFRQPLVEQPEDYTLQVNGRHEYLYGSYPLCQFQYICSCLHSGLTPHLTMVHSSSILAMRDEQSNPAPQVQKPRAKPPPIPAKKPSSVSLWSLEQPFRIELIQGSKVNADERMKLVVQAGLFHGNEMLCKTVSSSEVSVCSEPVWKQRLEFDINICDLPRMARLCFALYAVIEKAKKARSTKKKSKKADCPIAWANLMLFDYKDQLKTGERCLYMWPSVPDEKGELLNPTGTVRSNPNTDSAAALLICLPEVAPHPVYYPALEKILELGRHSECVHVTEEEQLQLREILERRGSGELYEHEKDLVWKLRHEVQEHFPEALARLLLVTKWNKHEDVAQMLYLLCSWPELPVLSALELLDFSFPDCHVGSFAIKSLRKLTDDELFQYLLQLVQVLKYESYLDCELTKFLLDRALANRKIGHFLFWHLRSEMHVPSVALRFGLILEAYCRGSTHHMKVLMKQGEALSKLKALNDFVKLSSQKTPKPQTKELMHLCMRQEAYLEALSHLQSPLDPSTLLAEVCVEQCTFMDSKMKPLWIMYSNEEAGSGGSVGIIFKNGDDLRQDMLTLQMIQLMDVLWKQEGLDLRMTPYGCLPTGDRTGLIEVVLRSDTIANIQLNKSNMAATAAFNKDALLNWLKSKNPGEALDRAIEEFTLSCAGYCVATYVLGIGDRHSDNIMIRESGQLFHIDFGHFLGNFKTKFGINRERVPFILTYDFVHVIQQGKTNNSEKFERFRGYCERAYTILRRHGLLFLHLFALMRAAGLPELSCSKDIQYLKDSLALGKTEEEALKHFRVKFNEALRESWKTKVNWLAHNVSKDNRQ
Chain of PI3Kδ (p110δ/p85α) (P27986 whole entry partner): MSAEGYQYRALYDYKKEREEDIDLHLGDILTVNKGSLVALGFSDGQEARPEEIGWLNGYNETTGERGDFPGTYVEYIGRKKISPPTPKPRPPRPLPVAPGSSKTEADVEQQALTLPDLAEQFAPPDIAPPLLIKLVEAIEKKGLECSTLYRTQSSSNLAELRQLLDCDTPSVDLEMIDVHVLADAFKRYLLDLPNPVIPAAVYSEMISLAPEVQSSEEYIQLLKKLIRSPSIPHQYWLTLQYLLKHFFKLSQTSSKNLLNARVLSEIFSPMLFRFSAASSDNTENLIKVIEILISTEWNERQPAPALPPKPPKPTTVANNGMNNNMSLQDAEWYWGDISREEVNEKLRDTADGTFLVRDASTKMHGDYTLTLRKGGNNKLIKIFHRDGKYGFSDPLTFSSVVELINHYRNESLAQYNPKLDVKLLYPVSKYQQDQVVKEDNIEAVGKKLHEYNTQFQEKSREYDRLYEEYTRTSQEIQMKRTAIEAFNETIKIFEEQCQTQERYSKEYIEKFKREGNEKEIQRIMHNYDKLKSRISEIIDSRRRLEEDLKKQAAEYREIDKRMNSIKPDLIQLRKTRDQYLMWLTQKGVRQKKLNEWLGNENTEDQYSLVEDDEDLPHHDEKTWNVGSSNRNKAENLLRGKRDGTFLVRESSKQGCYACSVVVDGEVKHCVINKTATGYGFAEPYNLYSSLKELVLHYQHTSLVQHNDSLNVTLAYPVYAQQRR
Chain of PI3Kγ (p110γ) (P48736 whole entry): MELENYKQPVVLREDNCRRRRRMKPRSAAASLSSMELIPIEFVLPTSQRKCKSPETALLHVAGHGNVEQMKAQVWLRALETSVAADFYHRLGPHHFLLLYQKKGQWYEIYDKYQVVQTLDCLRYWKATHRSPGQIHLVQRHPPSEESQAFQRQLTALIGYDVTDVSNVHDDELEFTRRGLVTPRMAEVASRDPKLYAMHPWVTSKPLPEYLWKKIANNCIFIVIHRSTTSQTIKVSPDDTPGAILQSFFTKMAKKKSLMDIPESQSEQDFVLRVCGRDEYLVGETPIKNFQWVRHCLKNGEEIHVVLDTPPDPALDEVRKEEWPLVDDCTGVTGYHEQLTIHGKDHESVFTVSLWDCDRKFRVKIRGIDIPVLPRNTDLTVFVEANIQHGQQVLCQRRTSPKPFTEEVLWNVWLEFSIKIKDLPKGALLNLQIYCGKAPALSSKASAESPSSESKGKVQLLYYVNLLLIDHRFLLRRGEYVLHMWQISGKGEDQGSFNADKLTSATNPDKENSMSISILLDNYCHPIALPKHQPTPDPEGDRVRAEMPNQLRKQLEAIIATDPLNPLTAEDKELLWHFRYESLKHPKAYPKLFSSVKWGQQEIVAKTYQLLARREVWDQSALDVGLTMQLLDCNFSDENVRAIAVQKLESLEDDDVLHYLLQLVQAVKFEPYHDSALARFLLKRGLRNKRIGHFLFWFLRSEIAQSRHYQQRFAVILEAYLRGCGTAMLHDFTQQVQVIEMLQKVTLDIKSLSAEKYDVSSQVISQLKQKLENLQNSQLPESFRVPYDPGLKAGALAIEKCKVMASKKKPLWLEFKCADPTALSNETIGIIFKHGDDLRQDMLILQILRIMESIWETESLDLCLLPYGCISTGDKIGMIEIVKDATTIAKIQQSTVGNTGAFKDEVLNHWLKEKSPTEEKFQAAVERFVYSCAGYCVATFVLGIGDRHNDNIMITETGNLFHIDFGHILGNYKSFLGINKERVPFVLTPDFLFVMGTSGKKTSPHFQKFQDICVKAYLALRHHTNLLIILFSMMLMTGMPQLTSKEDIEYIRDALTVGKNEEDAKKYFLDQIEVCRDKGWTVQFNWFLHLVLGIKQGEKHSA
Chain of PI3Kβ (p110β/p85α) (P42338 whole entry): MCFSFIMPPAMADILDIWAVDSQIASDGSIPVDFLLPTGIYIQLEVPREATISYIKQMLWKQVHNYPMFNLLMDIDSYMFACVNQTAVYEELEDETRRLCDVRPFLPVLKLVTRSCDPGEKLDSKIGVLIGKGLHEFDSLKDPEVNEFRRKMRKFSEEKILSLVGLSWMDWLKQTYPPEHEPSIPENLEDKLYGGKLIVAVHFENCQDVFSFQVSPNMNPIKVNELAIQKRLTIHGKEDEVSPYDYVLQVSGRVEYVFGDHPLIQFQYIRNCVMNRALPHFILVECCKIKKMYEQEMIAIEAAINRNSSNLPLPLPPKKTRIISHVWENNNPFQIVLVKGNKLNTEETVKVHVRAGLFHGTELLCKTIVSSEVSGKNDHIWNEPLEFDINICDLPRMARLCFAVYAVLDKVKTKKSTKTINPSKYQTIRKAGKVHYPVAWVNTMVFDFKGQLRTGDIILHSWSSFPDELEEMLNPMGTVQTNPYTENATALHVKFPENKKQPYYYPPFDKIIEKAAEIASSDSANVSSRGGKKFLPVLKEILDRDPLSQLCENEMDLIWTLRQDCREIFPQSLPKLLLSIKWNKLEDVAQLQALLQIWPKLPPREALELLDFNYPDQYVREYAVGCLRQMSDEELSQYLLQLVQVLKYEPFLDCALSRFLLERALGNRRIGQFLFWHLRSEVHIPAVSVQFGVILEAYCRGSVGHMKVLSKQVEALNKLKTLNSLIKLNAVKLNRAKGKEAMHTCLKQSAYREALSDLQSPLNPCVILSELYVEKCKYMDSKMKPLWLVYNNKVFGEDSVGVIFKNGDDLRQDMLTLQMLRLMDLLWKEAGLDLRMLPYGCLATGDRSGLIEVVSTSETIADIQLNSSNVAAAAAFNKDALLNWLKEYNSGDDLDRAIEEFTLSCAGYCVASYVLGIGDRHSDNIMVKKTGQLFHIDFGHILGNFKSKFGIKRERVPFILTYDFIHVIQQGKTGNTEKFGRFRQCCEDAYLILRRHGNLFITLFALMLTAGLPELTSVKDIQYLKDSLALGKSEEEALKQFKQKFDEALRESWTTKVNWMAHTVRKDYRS
Chain of PI3Kβ (p110β/p85α) (P27986 whole entry partner): as the sequence (P27986 whole entry partner) above
Chain of PI3Kα (p110α/p85α) (P42336 whole entry): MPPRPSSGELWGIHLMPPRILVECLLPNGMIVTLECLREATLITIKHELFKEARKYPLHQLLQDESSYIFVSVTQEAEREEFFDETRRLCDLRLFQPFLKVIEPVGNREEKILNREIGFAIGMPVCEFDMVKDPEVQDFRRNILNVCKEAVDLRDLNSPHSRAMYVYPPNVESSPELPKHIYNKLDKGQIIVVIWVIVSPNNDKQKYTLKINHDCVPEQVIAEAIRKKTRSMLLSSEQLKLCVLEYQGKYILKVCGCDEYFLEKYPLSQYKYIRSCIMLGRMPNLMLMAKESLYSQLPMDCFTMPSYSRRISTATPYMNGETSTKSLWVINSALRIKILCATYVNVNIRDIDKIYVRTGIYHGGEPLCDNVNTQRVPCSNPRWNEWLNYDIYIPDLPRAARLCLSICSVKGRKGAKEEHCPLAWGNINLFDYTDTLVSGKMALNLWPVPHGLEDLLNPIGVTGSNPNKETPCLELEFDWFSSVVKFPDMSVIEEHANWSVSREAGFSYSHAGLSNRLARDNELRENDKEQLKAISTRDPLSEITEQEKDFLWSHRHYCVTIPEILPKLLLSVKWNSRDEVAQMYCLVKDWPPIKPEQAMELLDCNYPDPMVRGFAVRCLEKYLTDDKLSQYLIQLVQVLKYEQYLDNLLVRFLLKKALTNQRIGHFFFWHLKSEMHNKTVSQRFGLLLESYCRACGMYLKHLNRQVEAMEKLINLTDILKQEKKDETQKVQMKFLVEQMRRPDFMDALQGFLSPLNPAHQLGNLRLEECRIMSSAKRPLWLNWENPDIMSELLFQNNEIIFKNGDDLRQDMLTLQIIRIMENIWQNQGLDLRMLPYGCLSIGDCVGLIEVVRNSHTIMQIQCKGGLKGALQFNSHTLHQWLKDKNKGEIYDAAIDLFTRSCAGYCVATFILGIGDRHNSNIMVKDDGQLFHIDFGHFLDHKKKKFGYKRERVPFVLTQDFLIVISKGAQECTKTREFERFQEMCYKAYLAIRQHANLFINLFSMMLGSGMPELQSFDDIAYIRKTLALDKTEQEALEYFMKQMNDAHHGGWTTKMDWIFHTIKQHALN
Chain of PI3Kα (p110α/p85α) (P27986 whole entry partner): as the sequence (P27986 whole entry partner) above

SMILES | IC50 [1] | Ratio (α/δ) [2] | Ratio (β/δ) [3] | Ratio (γ/δ) [4]
N#Cc1c(N)nc(N)nc1N1CCC[C@H]1c1cc2cccc(Cl)c2nc1-c1ccccc1 [Compound 68] | < 0.05 nM | >545 | >106 | ~10
N#Cc1c(N)ncnc1N1CCC[C@H]1c1cc2cccc(Cl)c2nc1N1CCOCC1 [Compound 69] | < 0.05 nM | >4154 | >111 | >31
